From patent publication EP2773641B1, “BIARYL ETHER SULFONAMIDES AND THEIR USE AS THERAPEUTIC AGENTS” (Xenon Pharmaceuticals Inc., priority 2011, dated 2013) come the findings set out here.

The target in one assay is T1, Nav1.7 (Homo sapiens, UniProt Q15858).
T1 construct: permanently transfected with an expression vector containing the full-length cDNA coding for the desired human sodium channel α-subunit; expressed in transfected cells
Briefly: Patch voltage clamp electrophysiology assay, block of the inactivated state of Nav1.7. The assay is classed as cell-based. Conditions: affinity for the inactivated state, HEK-293 cells stably expressing human Nav1.7 with β1 subunit, held at -60 mV. How it is done:
(§1) The following patch voltage clamp electrophysiology studies were performed on representative compounds of the invention using human embryonic kidney cells (HEK), permanently transfected with an expression vector containing the full-length cDNA coding for the desired human sodium channel α-subunit, grown in culture media containing 10% FBS, 1% PSG, and 0.5 mg/mL G418 at 37 °C with 5% CO2. […] Nav1.7 and Nav1.5 cDNAs (NM_002977 and AC137587; SCN5A, respectively) were stably expressed in HEK-293 cells. The β1 subunit was coexpressed only in the Nav1.7 cell line.
Sodium currents were measured using the patch clamp technique in the whole-cell configuration using either a PatchXpress automated voltage clamp or manually using an Axopatch 200B (Axon Instruments) or Model 2400 (A-M systems) amplifier. […] The pipette was filled with a solution comprised of: 5 mM NaCl, 10 mM CsCl, 120 mM CsF, 0.1 mM CaCl2, 2 mM MgCl2, 10 mM HEPES, 10 mM EGTA; and adjusted to pH 7.2 with CsOH. The external solution had the following composition: 140 mM NaCl, 5 mM KCI, 2 mM CaCl2, 1 mM MgCl2, 10 mM HEPES; and adjusted to pH 7.4 with NaOH. In some studies, the external sodium was reduced by equimolar replacement with choline. Osmolarity in the CsF internal and NaCl external solutions was adjusted to 300 mOsm/kg and 310 mOsm/kg with glucose, respectively. All recordings were performed at ambient temperature in a bath chamber with a volume of 150 µL. Control sodium currents were measured in 0.5% DMSO. Controls and representative compounds of the invention were applied to the recording chamber through a 4-pinch or 8-pinch valve bath perfusion system manufactured by ALA Scientific Instruments.
Series resistance compensation was applied (60-80%). […] All statistics in this study are given as mean ± SD.
The membrane potential was maintained at a voltage where inactivation of the channel is complete (which was -60 mV for both Nav1.7 and Nav1.5). The voltage is then stepped back to a very negative (Vhold = -150mV) voltage for 20 ms and then a test pulse is applied to quantify the compound block. […] The percent decrease in sodium current following wash-on of compound was taken as the percent block of sodium channels.
The Example numbers provided in Table 1 and Table 2 correspond to the Examples herein.

A further assay concerns the target T2, Nav1.5 (Homo sapiens, UniProt Q14524).
T2 construct: permanently transfected with an expression vector containing the full-length cDNA coding for the desired human sodium channel α-subunit; expressed in transfected cells
The experiment in a line: Patch voltage clamp electrophysiology assay, block of the inactivated state of Nav1.5. It is filed as cell-based. Conditions: IC50 class; affinity for the inactivated state; HEK-293 cells stably expressing human Nav1.5; held at -60 mV. How it is done:
Patch voltage clamp electrophysiology allows for the direct measurement and quantification of block of voltage-gated sodium channels (Nav's), and allows the determination of the time- and voltage-dependence of block which has been interpreted as differential binding to the resting, open, and inactivated states of the sodium channel (Hille, B., Journal of General Physiology (1977), 69: 497-515).
as §1
Sodium currents were measured using the patch clamp technique in the whole-cell configuration using either a PatchXpress automated voltage clamp or manually using an Axopatch 200B (Axon Instruments) or Model 2400 (A-M systems) amplifier. The manual voltage clamp protocol was as follows: Borosilicate glass micropipettes were fire-polished to a tip diameter yielding a resistance of 2-4 Mohms in the working solutions. The pipette was filled with a solution comprised of: 5 mM NaCl, 10 mM CsCl, 120 mM CsF, 0.1 mM CaCl2, 2 mM MgCl2, 10 mM HEPES, 10 mM EGTA; and adjusted to pH 7.2 with CsOH. The external solution had the following composition: 140 mM NaCl, 5 mM KCI, 2 mM CaCl2, 1 mM MgCl2, 10 mM HEPES; and adjusted to pH 7.4 with NaOH. In some studies, the external sodium was reduced by equimolar replacement with choline. Osmolarity in the CsF internal and NaCl external solutions was adjusted to 300 mOsm/kg and 310 mOsm/kg with glucose, respectively. All recordings were performed at ambient temperature in a bath chamber with a volume of 150 µL. Control sodium currents were measured in 0.5% DMSO. Controls and representative compounds of the invention were applied to the recording chamber through a 4-pinch or 8-pinch valve bath perfusion system manufactured by ALA Scientific Instruments.
Currents were recorded at 40 kHz sampling frequency, filtered at […], and stored using a Digidata-1322A analogue/digital interface with the pClamp software (Axon Instruments). Series resistance compensation was applied (60-80%). […] All statistics in this study are given as mean ± SD.
The membrane potential was maintained at a voltage where inactivation of the channel is complete (which was -60 mV for both Nav1.7 and Nav1.5). The voltage is then stepped back to a very negative (Vhold = -150mV) voltage for 20 ms and then a test pulse is applied to quantify the compound block. The 20 ms brief repolarization was long enough for compound-free channels to completely recover from fast inactivation, but the compound-bound channels recovered more slowly such that negligible recovery could occur during this interval. The percent decrease in sodium current following wash-on of compound was taken as the percent block of sodium channels.
The Example numbers provided in Table 1 and Table 2 correspond to the Examples herein. TABLE 1: Inhibition of Nav1.7

SMILES strings stand for the structures. Where two headings read alike, the source gives them in different places.

T2 sequence (Q14524 whole entry): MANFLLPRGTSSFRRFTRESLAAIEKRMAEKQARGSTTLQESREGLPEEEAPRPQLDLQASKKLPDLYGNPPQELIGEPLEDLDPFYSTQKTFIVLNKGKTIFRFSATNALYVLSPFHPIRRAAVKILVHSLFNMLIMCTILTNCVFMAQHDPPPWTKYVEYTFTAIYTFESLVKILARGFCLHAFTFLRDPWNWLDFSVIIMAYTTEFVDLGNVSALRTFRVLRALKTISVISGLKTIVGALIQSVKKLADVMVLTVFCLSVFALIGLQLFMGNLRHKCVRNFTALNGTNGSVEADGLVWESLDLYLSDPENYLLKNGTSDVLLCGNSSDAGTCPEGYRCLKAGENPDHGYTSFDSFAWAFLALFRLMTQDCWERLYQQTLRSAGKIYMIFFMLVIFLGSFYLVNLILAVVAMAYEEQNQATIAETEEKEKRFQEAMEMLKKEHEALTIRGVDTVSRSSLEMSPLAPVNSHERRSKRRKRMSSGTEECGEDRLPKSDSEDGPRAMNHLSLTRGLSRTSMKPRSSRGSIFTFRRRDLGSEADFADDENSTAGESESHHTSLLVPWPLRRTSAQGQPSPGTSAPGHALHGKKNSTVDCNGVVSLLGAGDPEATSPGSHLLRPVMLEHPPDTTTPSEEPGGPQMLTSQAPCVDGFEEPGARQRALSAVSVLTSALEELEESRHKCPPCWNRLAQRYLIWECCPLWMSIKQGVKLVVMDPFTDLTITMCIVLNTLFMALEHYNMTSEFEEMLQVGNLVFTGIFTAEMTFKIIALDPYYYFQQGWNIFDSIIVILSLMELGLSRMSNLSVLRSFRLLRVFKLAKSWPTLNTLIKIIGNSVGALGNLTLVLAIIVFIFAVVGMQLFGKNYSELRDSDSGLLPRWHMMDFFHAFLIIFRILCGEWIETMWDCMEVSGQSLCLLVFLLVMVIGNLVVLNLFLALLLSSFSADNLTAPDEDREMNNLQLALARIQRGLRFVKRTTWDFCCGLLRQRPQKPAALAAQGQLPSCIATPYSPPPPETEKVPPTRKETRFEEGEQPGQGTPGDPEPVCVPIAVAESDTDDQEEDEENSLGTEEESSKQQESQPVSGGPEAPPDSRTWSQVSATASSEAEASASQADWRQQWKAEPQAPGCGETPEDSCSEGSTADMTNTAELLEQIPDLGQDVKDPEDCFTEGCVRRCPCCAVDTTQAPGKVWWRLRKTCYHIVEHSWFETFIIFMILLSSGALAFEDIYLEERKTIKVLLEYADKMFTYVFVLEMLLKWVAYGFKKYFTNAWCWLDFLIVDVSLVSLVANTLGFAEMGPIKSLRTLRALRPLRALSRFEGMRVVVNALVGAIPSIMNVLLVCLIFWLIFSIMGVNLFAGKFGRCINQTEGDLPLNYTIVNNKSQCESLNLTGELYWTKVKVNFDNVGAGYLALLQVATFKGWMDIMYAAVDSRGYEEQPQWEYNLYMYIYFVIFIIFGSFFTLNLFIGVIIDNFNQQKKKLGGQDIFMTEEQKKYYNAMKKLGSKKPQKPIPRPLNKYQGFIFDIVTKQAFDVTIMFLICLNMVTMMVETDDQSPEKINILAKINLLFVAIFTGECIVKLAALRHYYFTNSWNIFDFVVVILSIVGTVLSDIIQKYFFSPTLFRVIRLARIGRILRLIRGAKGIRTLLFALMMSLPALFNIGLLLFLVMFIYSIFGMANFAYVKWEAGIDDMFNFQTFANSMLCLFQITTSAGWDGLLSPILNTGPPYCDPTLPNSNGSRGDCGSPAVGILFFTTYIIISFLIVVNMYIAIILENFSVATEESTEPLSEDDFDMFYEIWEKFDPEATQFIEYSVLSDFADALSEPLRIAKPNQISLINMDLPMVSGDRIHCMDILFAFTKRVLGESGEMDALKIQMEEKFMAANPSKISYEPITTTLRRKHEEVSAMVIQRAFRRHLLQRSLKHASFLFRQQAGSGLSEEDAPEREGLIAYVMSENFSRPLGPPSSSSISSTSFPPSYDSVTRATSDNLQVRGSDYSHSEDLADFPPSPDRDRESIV
T1 sequence (Q15858 1-1977 isoform Q15858-3): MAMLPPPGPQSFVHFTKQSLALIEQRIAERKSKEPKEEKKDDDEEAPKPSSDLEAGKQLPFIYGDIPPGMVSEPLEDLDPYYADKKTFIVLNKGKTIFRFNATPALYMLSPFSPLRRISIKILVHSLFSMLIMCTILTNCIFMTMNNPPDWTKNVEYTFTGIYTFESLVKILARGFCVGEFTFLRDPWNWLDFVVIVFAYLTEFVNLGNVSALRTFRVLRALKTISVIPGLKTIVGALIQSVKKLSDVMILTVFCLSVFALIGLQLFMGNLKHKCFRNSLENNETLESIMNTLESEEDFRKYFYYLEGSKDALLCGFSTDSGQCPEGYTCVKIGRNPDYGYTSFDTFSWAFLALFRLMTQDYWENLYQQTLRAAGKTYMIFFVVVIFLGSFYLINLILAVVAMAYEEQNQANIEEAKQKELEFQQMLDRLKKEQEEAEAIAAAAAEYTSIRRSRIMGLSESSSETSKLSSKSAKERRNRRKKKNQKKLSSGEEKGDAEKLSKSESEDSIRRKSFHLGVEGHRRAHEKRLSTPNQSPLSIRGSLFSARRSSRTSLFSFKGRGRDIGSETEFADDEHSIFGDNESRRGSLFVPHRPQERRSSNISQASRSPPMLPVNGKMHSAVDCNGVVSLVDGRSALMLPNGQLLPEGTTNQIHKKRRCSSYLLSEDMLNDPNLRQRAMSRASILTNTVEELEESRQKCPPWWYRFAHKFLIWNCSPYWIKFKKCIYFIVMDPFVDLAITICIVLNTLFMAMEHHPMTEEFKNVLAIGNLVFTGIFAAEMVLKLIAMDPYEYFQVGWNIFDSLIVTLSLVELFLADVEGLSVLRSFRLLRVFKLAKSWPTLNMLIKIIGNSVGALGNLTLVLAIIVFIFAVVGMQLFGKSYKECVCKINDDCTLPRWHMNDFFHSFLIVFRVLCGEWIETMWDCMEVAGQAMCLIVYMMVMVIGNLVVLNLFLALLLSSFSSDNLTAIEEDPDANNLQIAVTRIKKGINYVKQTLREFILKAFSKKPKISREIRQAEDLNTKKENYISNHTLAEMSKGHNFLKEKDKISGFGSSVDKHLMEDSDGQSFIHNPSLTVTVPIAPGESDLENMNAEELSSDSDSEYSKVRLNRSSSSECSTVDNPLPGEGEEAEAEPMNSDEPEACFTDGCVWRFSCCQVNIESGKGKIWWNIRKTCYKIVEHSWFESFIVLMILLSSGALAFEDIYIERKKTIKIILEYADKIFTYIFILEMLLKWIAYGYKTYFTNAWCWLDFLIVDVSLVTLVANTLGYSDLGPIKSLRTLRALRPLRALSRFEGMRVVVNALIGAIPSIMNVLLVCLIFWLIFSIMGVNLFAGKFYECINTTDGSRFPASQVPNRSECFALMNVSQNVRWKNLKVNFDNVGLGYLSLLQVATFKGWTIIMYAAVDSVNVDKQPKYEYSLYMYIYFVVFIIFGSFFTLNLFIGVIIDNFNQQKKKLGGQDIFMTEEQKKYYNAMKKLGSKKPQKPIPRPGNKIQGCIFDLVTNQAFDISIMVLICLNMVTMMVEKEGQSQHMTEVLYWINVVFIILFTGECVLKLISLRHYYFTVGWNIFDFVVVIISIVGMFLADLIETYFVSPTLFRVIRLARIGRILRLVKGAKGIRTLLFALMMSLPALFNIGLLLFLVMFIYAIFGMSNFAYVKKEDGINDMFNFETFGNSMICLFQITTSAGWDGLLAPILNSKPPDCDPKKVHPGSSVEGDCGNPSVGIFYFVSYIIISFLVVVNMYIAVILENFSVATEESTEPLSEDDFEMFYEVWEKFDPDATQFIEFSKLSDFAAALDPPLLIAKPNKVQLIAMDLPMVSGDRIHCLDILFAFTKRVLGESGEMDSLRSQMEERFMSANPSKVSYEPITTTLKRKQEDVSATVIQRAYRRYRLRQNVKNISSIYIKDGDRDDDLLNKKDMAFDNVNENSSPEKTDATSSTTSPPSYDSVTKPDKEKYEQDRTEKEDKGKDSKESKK
T1 sequence (Q07699 19-218 partner): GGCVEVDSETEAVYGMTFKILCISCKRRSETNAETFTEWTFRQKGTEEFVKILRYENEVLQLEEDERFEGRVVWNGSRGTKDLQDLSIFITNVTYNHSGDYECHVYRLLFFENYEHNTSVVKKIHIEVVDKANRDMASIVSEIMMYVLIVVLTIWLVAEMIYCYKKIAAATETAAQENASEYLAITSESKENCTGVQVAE

Take `O=S(=O)(Nc1ncns1)c1cc(F)c(Oc2ccc(Cl)cc2-c2cccc3nccn23)cc1F` [Example 30, 4-(4-chloro-2-(imidazo[1,2-a]pyridin-5-yl)phenoxy)-2,5-difluoro-N-(1,2,4-thiadiazol-5-yl)benzenesulfonamide]: the IC50 at Nav1.7 (read-out: Nav1.7 IC50) is 13.4 nM; on Nav1.5, above 10000 nM.

On to `O=S(=O)(Nc1ncns1)c1cc(F)c(Oc2ccc(Cl)cc2-c2ccnc3nccn23)cc1F` [Example 31, 4-(4-chloro-2-(imidazo[1,2-a]pyrimidin-5-yl)phenoxy)-2,5-difluoro-N-(1,2,4-thiadiazol-5-yl)benzenesulfonamide], for which the IC50 on Nav1.7 (read-out: Nav1.7 IC50) is 8 nM; at Nav1.5, above 10000 nM.

With `Nc1nc2cc(-c3cc(Cl)ccc3Oc3cc(F)c(S(=O)(=O)Nc4ncns4)cc3F)ccc2[nH]1` [Example 38, 4-(2-(2-amino-1H-benzo[d]imidazol-5-yl)-4-chlorophenoxy)-2,5-difluoro-N-(1,2,4-thiadiazol-5-yl)benzenesulfonamide], the IC50 is 0.3 nM on Nav1.7 (read-out: Nav1.7 IC50) and above 10000 nM against Nav1.5.

On to `CN(c1ncns1)S(=O)(=O)c1cc(F)c(Oc2ccc(Cl)cc2-c2ccc3[nH]c(N)nc3c2)cc1F` [Example 41, 4-(2-(2-amino-1H-benzo[d]imidazol-5-yl)-4-chlorophenoxy)-2,5-difluoro-N-methyl-N-(1,2,4-thiadiazol-5-yl)benzenesulfonamide], for which the IC50 at Nav1.7 (IC50 class, read-out: Nav1.7) was 100 to 1000 nM; at Nav1.7 (read-out: Nav1.7 IC50), 67.8 nM; against Nav1.5, 1000 to 10000 nM.

As for `Nc1noc2ccc(-c3cc(Cl)ccc3Oc3cc(F)c(S(=O)(=O)Nc4ncns4)cc3F)cc12` [Example 44, 4-(2-(3-aminobenzo[d]isoxazol-5-yl)-4-chlorophenoxy)-2,5-difluoro-N-(1,2,4-thiadiazol-5-yl)benzenesulfonamide], the IC50 at Nav1.7 (read-out: Nav1.7 IC50) was 0.6 nM; at Nav1.5 it was 1000 to 10000 nM.

On to `Nc1noc2ccc(-c3cc(F)ccc3Oc3cc(F)c(S(=O)(=O)Nc4ncns4)cc3F)cc12` [Example 80, 4-(2-(3-aminobenzo[d]isoxazol-5-yl)-4-fluorophenoxy)-2,5-difluoro-N-(1,2,4-thiadiazol-5-yl)benzenesulfonamide], for which the IC50 on Nav1.7 (read-out: Nav1.7 IC50) was 1.7 nM.

With `Cc1ccc(Oc2cc(F)c(S(=O)(=O)Nc3ncns3)cc2F)c(-c2ccc3oc(=O)[nH]c3c2)c1` [Example 82, 2,5-difluoro-4-(4-methyl-2-(2-oxo-2,3-dihydrobenzo[d]oxazol-5-yl)phenoxy)-N-(1,2,4-thiadiazol-5-yl)benzenesulfonamide], the IC50 at Nav1.7 (read-out: Nav1.7 IC50) was 0.7 nM.

On to `Nc1noc2ccc(-c3cccnc3Oc3cc(F)c(S(=O)(=O)Nc4ncns4)cc3F)cc12` [Example 86, 4-((3-(3-aminobenzo[d]isoxazol-5-yl)pyridin-2-yl)oxy)-2,5-difluoro-N-(1,2,4-thiadiazol-5-yl)benzenesulfonamide], for which the IC50 is 100 to 1000 nM at Nav1.7 (IC50 class, read-out: Nav1.7) and 51 nM at Nav1.7 (read-out: Nav1.7 IC50).

For the molecule `CN(C)c1noc2ccc(-c3cc(Cl)ccc3Oc3cc(F)c(S(=O)(=O)Nc4ncns4)cc3F)cc12` [Example 98, 4-(4-chloro-2-(3-(dimethylamino)benzo[d]isoxazol-5-yl)phenoxy)-2,5-difluoro-N-(1,2,4-thiadiazol-5-yl)benzenesulfonamide], the IC50 at Nav1.7 (read-out: Nav1.7 IC50) is 0.2 nM.
